Tests used:
[1] = tested on: Staphylococcus aureus RN4220; assay: Agar diffusion assay (diameter of zone of inhibition); assay type: cell-based; conditions: for DZI, diameter of zone of inhibition: LB agar, 6 mm paper disks, 37 °C 16 h, peptides 1 mM (SalB & B-1: cell-free synthesized, purified mixture; SalB and SalB-1: produced in vivo, purified), Kan 50 μg/mL positive control, representative of n = 3; for Antimicrobial activity against Staphylococcus aureus RN4220 (in words): agar diffusion assay, in vivo and cell-free produced peptides, 1 mM
From the text: Fig. 2 In vitro expression, modification, and maturation of salivaricin B in UniBioCat. a The gene cluster (top) and catalytic steps (bottom) of salivaricin B biosynthesis. Dha, dehydroalanine; Dhb, dehydrobutyrine; Abu, α-aminobutyric acid. b Western-blot analysis of the cell-free expressed precursor peptide (left: SboA, 7.8 kDa) and modification enzymes [right: SboM (113 kDa) and SboT (83 kDa) are co-expressed]. Peptides/enzymes are labeled with the anti-His antibody. M, protein marker; T, total protein; S, soluble protein. Results were reproduced three times independently; representative data are shown. c MALDI-TOF-MS analysis of the precursor peptide (left: 6x His-tagged SboA, [M + H]^+ m/z = 7355) and modified precursor peptides (right: dehydrated 6x His-tagged SboA, [M-H2O + H]^+ m/z = 7337, [M-2H2O + H]^+ m/z = 7319, and [M−4H2O + H]^+ m/z = 7283). d MALDI-TOF-MS (left), LC-MS (middle), and MS/MS (right) analysis of matured salivaricin B. e MALDI-TOF-MS (left), LC-MS (middle), and MS/MS (right) analysis of the analog salivaricin B−1 with one additional amino acid alanine at the N-terminus. f Antimicrobial activity assay of salivaricin B (SalB) and salivaricin B-1 (SalB-1). “SalB & B-1” was cell-free synthesized and purified for the activity assay (note that the sample used was a mixture of SalB and B-1 with a concentration of 1 mM for the test). For in vivo produced SalB and SalB-1, 1 mM of each purified SalB and SalB-1 was used for the activity assay. NC, negative control; Kan, kanamycin (50 μg/mL) as a positive control; DZI, diameter of zone of inhibition (in mm). Data shown representative of three independent experiments (n = 3). Source data are provided as a Source Data file. TEXT PRINTED IN THE PICTURE: (f) Kan: DZI: 22 | (f) SalB & B-1 (UniBioCat): DZI: 7.5 | (f) SalB (in vivo): DZI: 7.5 | (f) SalB-1 (in vivo): DZI: 9.5
Two approaches were used for testing antimicrobial activity, including solid agar plate diffusion and liquid medium cultivation. In the diffusion assay, the overnight cultivated indicator strain S. aureus RN4220 was mixed with the melted LB agar medium (a starting OD600 of 0.05). The mixture was poured onto the plate and allowed to solidify at room temperature for 30 min. Then, sterile paper disks (diameter 6 mm) were placed on the surface of the agar plate and 1 mM of each peptide was added to the paper disk. The plates were incubated at 37 °C for 16 h, and the diameter of the zone of inhibition (DZI, in mm) was measured for comparison. In the second approach, the assay was performed in 96-well plates, and cell-free synthesized mature peptides were directly used without purification. For the samples of salivaricin B variants, 80 μL of each sample (diluted if necessary) was mixed with 120 μL of LB medium, containing each variant at a roughly final concentration of 6–7 μM and the indicator strain S. aureus RN4220 (a starting OD600 of 0.02). For the samples of uncharacterized (Lan 1 - Lan 10) and three known (lacticin 481, ruminococcin A, and nukacin ISK-1) lanthipeptides, 80 μL of the cell-free reaction mixture was added directly to the liquid cultivation without quantification. The 96-well plates were incubated at 37 °C and 150 rpm for 12 h. During the cultivation, OD600 values were measured every 2 h and ΔOD600 was calculated to compare the antimicrobial activity of tested samples. In all assays, kanamycin was used as a positive for comparison.

S. aureus RN4220 [2] = assay: Liquid medium cultivation in 96-well plates, growth inhibition as ΔOD600; assay type: cell-based, Staphylococcus aureus; conditions: peptides produced in vivo and purified, Supplementary Fig. 12 (50 μM, liquid) and Fig. 2f (1 mM, agar diffusion)
From the text: Fig. 3 Generation of salivaricin B mutants and their antimicrobial activity. a Representative MALDI-TOF-MS analyses of single-site mutagenesis at the position of Q6 or L20. b Representative MALDI-TOF-MS analyses of two-site mutagenesis at the positions of Q6 and L20. In (a) and (b), salivaricin B-1 based variants are the most abundant products in all analyses, which are indicated with the [M + H]^+ ions. c Quantification of salivaricin B mutants that are synthesized in UniBioCat reactions (see Supplementary Table 5 for the yield of each peptide variant). d Antimicrobial activity assay showing ΔOD600 profiles of S. aureus RN4220 growth treated with single-site (top) and two-site (bottom) mutants. […]
Two approaches were used for testing antimicrobial activity, including solid agar plate diffusion and liquid medium cultivation. […] The plates were incubated at 37 °C for 16 h, and the diameter of the zone of inhibition (DZI, in mm) was measured for comparison. […] For the samples of uncharacterized (Lan 1 - Lan 10) and three known (lacticin 481, ruminococcin A, and nukacin ISK-1) lanthipeptides, 80 μL of the cell-free reaction mixture was added directly to the liquid cultivation without quantification. […] During the cultivation, OD600 values were measured every 2 h and ΔOD600 was calculated to compare the antimicrobial activity of tested samples. […]

Bacillus subtilis = assay: MIC (broth microdilution) and IC50 determination; assay type: cell-based; conditions: LB, 37 °C, 130 rpm
Procedure: (§1) MIC values were determined by using a broth microdilution method. Overnight cultures of each indicator strain were diluted to 5 × 10^5 CFU mL^−1 using fresh LB medium and distributed into 96-well plates. Then, the cells were treated with twofold serial dilutions of the purified peptides (i.e., salivaricin B and variants). The total volume of each cultivation was 200 μL per well, consisting of 175 μL bacteria cells and 25 μL diluted peptides. The final concentrations of each peptide were set at 0.12, 0.25, 0.5, 1, 2, 4, 8, and 16 μM. The positive growth control wells only contained bacterial cells without addition of peptides. The plates were incubated with 130 rpm at 37 °C for B. subtilis and M. luteus and 30 °C for L. lactic. After incubation, the lowest peptide concentration, which inhibited 90% of the bacterial growth, was recorded as the MIC. The growth curves were used to determine IC50 values with GraphPad Prism (version 10.2.1, GraphPad Software).
(§2) Supplementary Table 6 Minimal inhibitory concentrations (MIC) and IC50 of salivaricin B and variants.
(§3) Bacillus subtilis Micrococcus luteus Lactococcus lactis
(§4) Peptides MIC IC50 MIC IC50 MIC IC50
(§5) (μM) (μM) (μM) (μM) (μM) (μM)
(§6) Source data are provided as a Source Data file.

Lactococcus lactis = assay: MIC (broth microdilution) and IC50 determination; assay type: cell-based; conditions: LB, 30 °C, 130 rpm
Procedure: as §1, §2, §3, §4, §5, §6

Micrococcus luteus = assay: MIC (broth microdilution) and IC50 determination; assay type: cell-based; conditions: LB, 37 °C, 130 rpm
Procedure: as §1, §2, §3, §4, §5, §6

S. aureus RN4220 [3] = assay: MIC and IC50 assay with the indicator strain S. aureus RN4220; assay type: cell-based, Staphylococcus aureus; conditions: purified peptides produced in vivo
Procedure: We next sought to test the antimicrobial activity of the mutated salivaricin B variants against the indicator strain S. aureus RN4220. To compare their activity, we first determined the concentrations of all peptide variants synthesized in UniBioCat reactions (Fig. 3c and Supplementary Table 5) and added an equal amount of each variant to the cell culture in 96-well plates. During the cultivation, OD600 values were measured every 2 h for a total of 12 h. […] Based on the single-site mutagenesis and activity assay, we performed a second-round mutation with two-site mutagenesis at both Q6 and L20 using eight selected variants (the combination leads to 15 two-site mutated variants). All these new variants could be synthesized and detected by MALDI-TOF-MS (see Fig. 3b for representative analyses). […] To further verify their activity and compare to standard in vivo approaches, six variants including single- and two-site mutation were selected to be produced by in vivo expression/modification and in vitro digestion for maturation. […] Additionally, we evaluated the MIC and IC50 of four strong variants (see Supplementary Fig. 12 for SalB_Q6H, SalB_L20M, SalB_L20I-Q6H, and SalB_L20M-Q6H) against three other indicator strains, including Bacillus subtilis, Micrococcus luteus, and Lactococcus lactis.
MIC values were determined by using a broth microdilution method. […]

[4] = read-out: IC50 of salivaricin B, previous report; cited from earlier work
Procedure: We next sought to test the antimicrobial activity of the mutated salivaricin B variants against the indicator strain S. aureus RN4220. To compare their activity, we first determined the concentrations of all peptide variants synthesized in UniBioCat reactions (Fig. 3c and Supplementary Table 5) and added an equal amount of each variant to the cell culture in 96-well plates. During the cultivation, OD600 values were measured every 2 h for a total of 12 h. […] Based on the ...

[5] = broth microdilution, 5 × 10^5 CFU mL^−1, purified peptides 0.12–16 μM twofold dilutions, lowest concentration inhibiting 90% of growth
[6] = from growth curves, GraphPad Prism, purified peptides 0.12–16 μM

Compound	DZI, diameter of zone of inhibition [1] [mm]	Antimicrobial activity against Staphylococcus aureus RN4220 (in words) [1]	Antimicrobial activity compared with salivaricin B, purified peptides (in words) (S. aureus RN4220 [2])	MIC, Bacillus subtilis (Bacillus subtilis; [5]) [µM]	IC50 (Bacillus subtilis; [6]) [nM]	MIC, Lactococcus lactis (Lactococcus lactis; [5]) [µM]	IC50 (Lactococcus lactis; [6]) [nM]	MIC, Micrococcus luteus (Micrococcus luteus; [5]) [µM]	IC50 (Micrococcus luteus; [6]) [nM]	IC50 (S. aureus RN4220 [3]) [nM]	IC50 [4] [nM]
NC[C@H]1O[C@H](O[C@H]2[C@H](O)[C@@H](O[C@H]3O[C@H](CO)[C@@H](O)[C@H](N)[C@H]3O)[C@H](N)C[C@@H]2N)[C@H](O)[C@@H](O)[C@@H]1O [Kan, kanamycin, reference compound]	22										
AGGGVIQAbuIAlaHEAlaRMNAlaWQFLFDhbAlaAlaS (bicyclic or more) [Salivaricin B-1, salivaricin B-1, salivaricin B-like peptide with one additional amino acid alanine at the N-terminus]	9.5	clear inhibitory effects on cell growth	even higher antimicrobial activity than salivaricin B								
GGGVIQAbuIAlaHEAlaRMNAlaWQFLFDhbAlaAlaS (bicyclic or more) [Salivaricin B, salivaricin B, class II lanthipeptide naturally produced by Streptococcus salivarius K12; wild type, made cell-free or in vivo]	7.5	clear inhibitory effects on cell growth		4	1880 ± 10	4	1670 ± 80	2	1190 ± 50	> 8000	8640

From PMC11109155, “Cell-free biosynthesis and engineering of ribosomally synthesized lanthipeptides” (Nature Communications, 2024)
